Values of other authors, collected in US20150366901A1, “Methods of Treating Heart Failure” (The Trustees of the University of Pennsylvania, priority 2013, published 2015).

Tests used:
healthy volunteers = settings: ingestion of 8 mmol, 3 hours post-ingestion
[1] = nitrite formed from nitrate by oral cavity commensal bacteria
old mice = settings: supplementation for 3 weeks, 478 AU before, young counterparts 332 AU

## inorganic nitrate
Healthy volunteers
  aortic pulse wave velocity: decrease in aortic pulse wave velocity

## O=NO [nitrite]
[1]
  oral bioavailability: > 95%

## O=NO [sodium nitrite]
Old mice
  aortic pulse wave velocity (PWV) after supplementation: 384 AU

## O=[N+]([O-])O [nitrate]
Circulating nitrate
  half-life in plasma: ~5 h
Concentrated in saliva, rest excreted by the kidneys
  share of circulating nitrate actively taken up by the salivary glands: Up to 25%
